Among the data in patent publication US9340590B2 (priority 2011, dated 2016) are IC50 values, retold here.

Where two headings read alike, the source gives them in different places. Positions of bridges follow the written chain, without caps; N, C: chain ends. Non-standard residues stand in square brackets, D forms with d. Residues, ends and D or L forms follow the SMILES beside them. Dab = NCC[C@H](N)C(=O)O

Holding throughout (assay): cell-based
The target in one assay is hNav1.5 (Homo sapiens, UniProt Q14524). As to conditions: IonWorks Quattro, read-out: IWQ Use Nav1.5.
The next assay addresses hNav1.3 (Homo sapiens, UniProt Q9NY46). As to conditions: IonWorks Quattro, read-out: IWQ Use Nav1.3.
The next assay deals with hNav1.7 (Homo sapiens, UniProt Q15858). Format: cell-based. As to conditions: IonWorks Quattro, read-out: IWQ Use Nav1.7.
Chain of hNav1.7 (Q15858 whole entry, looked up): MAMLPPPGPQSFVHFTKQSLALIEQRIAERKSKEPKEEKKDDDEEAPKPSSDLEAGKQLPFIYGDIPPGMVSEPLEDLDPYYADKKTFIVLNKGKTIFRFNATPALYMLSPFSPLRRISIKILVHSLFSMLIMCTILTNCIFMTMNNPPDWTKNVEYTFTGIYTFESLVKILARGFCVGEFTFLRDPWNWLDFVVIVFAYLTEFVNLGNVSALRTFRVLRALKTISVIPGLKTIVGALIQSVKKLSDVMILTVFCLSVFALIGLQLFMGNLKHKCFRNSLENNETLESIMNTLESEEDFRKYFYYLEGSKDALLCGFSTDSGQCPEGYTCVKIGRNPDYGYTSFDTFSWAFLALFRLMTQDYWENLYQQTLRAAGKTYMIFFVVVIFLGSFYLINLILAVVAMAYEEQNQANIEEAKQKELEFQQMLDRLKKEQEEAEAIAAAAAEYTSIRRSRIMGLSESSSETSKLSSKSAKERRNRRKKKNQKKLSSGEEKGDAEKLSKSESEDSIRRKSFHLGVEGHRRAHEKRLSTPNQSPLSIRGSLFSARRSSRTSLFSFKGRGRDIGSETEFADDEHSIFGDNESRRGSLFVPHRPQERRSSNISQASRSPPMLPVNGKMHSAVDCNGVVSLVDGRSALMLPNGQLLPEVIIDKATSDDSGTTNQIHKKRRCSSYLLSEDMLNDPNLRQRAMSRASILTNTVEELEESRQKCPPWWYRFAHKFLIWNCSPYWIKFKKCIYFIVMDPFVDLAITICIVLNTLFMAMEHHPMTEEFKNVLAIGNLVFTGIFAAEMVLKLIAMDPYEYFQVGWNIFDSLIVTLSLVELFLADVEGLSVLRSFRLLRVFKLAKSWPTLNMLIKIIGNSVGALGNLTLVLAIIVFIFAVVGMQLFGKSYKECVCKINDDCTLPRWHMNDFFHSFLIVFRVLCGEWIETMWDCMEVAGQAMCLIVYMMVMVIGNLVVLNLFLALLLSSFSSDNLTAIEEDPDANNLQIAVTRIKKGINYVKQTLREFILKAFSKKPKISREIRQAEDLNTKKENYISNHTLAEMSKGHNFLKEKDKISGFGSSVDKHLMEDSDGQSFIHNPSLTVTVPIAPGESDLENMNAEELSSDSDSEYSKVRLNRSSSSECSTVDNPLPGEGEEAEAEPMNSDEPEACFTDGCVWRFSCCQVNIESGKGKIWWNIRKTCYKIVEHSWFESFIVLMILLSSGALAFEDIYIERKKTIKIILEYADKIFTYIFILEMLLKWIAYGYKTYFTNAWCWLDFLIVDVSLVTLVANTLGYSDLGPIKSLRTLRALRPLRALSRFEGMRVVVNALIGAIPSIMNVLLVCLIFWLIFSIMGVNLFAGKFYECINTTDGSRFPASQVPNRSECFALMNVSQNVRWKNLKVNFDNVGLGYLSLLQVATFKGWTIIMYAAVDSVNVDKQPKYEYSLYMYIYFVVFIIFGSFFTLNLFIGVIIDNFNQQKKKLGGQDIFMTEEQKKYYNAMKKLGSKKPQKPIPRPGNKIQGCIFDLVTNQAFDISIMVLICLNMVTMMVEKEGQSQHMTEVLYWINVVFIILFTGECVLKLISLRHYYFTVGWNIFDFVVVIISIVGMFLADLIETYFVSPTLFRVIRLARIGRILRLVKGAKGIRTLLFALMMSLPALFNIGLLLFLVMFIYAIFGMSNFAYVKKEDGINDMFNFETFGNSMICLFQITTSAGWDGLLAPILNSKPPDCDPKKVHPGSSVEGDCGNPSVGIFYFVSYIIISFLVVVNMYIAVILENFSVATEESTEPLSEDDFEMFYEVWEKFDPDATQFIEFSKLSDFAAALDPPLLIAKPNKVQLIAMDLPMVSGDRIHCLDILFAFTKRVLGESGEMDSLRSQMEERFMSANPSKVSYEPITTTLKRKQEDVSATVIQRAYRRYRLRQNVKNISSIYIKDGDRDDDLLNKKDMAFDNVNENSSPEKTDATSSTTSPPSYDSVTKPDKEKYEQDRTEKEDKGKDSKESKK

Chain of hNav1.3 (Q9NY46 whole entry, looked up): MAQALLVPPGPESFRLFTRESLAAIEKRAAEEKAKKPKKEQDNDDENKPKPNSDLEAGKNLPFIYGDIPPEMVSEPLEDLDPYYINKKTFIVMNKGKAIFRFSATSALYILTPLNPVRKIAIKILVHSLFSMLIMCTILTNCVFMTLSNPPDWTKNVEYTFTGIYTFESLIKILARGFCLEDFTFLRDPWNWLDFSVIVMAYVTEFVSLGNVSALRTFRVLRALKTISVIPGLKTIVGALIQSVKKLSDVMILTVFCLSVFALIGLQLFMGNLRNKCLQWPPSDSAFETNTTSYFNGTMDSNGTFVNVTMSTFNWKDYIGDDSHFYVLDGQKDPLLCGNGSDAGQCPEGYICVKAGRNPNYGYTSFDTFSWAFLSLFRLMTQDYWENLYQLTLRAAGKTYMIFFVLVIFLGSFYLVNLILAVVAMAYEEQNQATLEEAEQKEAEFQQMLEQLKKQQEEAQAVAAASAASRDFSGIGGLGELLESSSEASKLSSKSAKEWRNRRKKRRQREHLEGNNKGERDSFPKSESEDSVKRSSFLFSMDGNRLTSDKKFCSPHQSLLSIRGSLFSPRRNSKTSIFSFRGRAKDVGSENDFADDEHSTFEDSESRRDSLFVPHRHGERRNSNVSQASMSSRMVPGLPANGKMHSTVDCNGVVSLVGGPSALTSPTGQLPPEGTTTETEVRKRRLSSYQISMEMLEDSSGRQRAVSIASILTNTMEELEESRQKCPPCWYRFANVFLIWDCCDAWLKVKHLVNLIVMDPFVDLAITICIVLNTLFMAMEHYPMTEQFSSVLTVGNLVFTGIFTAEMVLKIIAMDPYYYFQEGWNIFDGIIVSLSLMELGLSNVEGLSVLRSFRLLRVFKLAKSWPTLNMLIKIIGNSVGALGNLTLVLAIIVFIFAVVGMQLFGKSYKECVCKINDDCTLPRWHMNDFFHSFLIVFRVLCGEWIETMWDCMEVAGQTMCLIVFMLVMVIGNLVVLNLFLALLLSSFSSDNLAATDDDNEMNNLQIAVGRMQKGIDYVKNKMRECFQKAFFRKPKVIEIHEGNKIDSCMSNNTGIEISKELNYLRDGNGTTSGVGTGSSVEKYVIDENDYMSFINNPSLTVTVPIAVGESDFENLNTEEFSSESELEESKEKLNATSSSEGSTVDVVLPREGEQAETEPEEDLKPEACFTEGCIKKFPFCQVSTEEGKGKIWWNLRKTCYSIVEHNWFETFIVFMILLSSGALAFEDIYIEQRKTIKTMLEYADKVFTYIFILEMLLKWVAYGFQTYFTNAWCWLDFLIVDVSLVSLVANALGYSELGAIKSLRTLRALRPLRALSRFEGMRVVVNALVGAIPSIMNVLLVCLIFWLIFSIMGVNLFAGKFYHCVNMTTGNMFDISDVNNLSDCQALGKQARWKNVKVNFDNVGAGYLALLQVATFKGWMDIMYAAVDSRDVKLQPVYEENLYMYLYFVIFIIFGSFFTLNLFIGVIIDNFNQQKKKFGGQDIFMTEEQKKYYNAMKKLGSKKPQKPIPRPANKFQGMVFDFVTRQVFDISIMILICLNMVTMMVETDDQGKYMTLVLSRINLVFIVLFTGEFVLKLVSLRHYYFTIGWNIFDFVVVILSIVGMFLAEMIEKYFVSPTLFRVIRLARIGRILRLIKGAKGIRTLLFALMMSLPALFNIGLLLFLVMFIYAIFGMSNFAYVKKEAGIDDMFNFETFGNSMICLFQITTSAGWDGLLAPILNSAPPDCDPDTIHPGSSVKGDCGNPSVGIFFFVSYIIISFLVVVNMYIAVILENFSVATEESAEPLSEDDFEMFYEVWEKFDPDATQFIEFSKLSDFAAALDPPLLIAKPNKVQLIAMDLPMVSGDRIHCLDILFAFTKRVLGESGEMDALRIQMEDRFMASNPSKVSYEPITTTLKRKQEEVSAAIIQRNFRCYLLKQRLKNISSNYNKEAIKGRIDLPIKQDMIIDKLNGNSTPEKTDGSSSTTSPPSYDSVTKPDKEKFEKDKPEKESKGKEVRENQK

In the case of `CC[C@H](C)[C@@H]1NC(=O)[C@@H]2CSSC[C@@H]3NC(=O)[C@H](C(C)C)NC(=O)[C@H](CC(C)C)NC(=O)[C@H](CC(N)=O)NC(=O)[C@@H]4CCCN4C(=O)[C@H](CCCNC(=N)N)NC(=O)[C@H](CSSC[C@H](NC(=O)[C@@H](N)CC(=O)O)C(=O)N[C@@H](CC(C)C)C(=O)NCC(=O)NCCC(=O)N[C@@H](CC(C)C)C(=O)N[C@@H](CCCNC(=N)N)C(=O)N[C@@H](CCCCN)C(=O)N2)NC(=O)[C@H](CSSC[C@@H](C(=O)N[C@@H](CCCCN)C(=O)N[C@@H](Cc2ccc(O)cc2)C(=O)N[C@H](C(=O)N[C@@H](Cc2ccccc2)C(N)=O)C(C)C)NC(=O)[C@H](Cc2c[nH]c4ccccc24)NC(=O)[C@H](CCCCN)NC(=O)[C@H](Cc2c[nH]cn2)NC(=O)[C@H]([C@@H](C)O)NC(=O)[C@H](CCCNC(=N)N)NC(=O)[C@H](CO)NC3=O)NC(=O)[C@H](CCCCN)NC(=O)[C@H](CC(=O)O)NC(=O)[C@H](CC(N)=O)NC(=O)[C@H](CC(=O)O)NC(=O)[C@@H]2CCCN2C1=O` [compound 634], the IC50 was determined as 14.1 µM at hNav1.5 (use-dependent protocol, hNav1.5); 18.1 µM on hNav1.3 (use-dependent protocol, hNav1.3); 9.3 µM at hNav1.7 (use-dependent protocol, hNav1.7).

Take `CC[C@H](C)[C@@H]1NC(=O)[C@@H]2CSSC[C@@H]3NC(=O)[C@H](C(C)C)NC(=O)[C@H](CC(C)C)NC(=O)[C@H](CC(N)=O)NC(=O)[C@@H]4CCCN4C(=O)[C@H](CCCNC(=N)N)NC(=O)[C@H](CSSC[C@H](NC(=O)[C@@H](N)CC(=O)O)C(=O)N[C@@H](CC(C)C)C(=O)NCC(=O)N[C@@H](C)C(=O)N[C@@H](CCSC)C(=O)N[C@@H](CCCNC(=N)N)C(=O)N[C@@H](CCCCN)C(=O)N2)NC(=O)[C@H](CSSC[C@@H](C(=O)N[C@@H](CCCCN)C(=O)N[C@@H](Cc2ccc(O)cc2)C(=O)N[C@H](C(=O)N[C@@H](Cc2ccccc2)C(N)=O)C(C)C)NC(=O)[C@H](Cc2c[nH]c4ccccc24)NC(=O)[C@H](CCN)NC(=O)[C@H](Cc2c[nH]cn2)NC(=O)[C@H]([C@@H](C)O)NC(=O)[C@H](CCCNC(=N)N)NC(=O)[C@H](CO)NC3=O)NC(=O)[C@H](CCCCN)NC(=O)[C@H](CC(=O)O)NC(=O)[C@H](CC(N)=O)NC(=O)[C@H](CC(=O)O)NC(=O)[C@@H]2CCCN2C1=O` [compound 762] (H-DCLGAMRKCIPDNDKCCRPNLVCSRTH[Dab]WCKYVF-NH2; disulfide 2-17, 9-23, 16-30): the IC50 at hNav1.5 (use-dependent block, hNav1.5) worked out at 23.3 µM; on hNav1.3 (use-dependent block, hNav1.3), 0.86 µM; on hNav1.7 (use-dependent block, hNav1.7), 0.32 µM.

In the case of `CC[C@H](C)[C@@H]1NC(=O)[C@@H]2CSSC[C@@H]3NC(=O)[C@H](C(C)C)NC(=O)[C@H](CC(C)C)NC(=O)[C@H](CC(N)=O)NC(=O)[C@@H]4CCCN4C(=O)[C@H](CCCNC(=N)N)NC(=O)[C@H](CSSC[C@H](NC(=O)[C@@H](N)CC(=O)O)C(=O)N[C@@H](CC(C)C)C(=O)NCC(=O)N[C@@H](Cc4ccccc4)C(=O)N[C@@H](CCSC)C(=O)N[C@@H](CCCNC(=N)N)C(=O)N[C@@H](CCCCN)C(=O)N2)NC(=O)[C@H](CSSC[C@@H](C(=O)N[C@@H](CCCCN)C(=O)N[C@@H](Cc2ccc(O)cc2)C(=O)N[C@H](C(=O)N[C@@H](Cc2ccccc2)C(N)=O)C(C)C)NC(=O)[C@H](Cc2c[nH]c4ccccc24)NC(=O)[C@H](CCCCN)NC(=O)[C@H](Cc2cnc[nH]2)NC(=O)[C@H](Cc2c[nH]c4ccccc24)NC(=O)[C@H](CCCNC(=N)N)NC(=O)[C@H](CO)NC3=O)NC(=O)[C@H](CCCCN)NC(=O)[C@H](CC(=O)O)NC(=O)[C@H](CC(N)=O)NC(=O)[C@H](CC(=O)O)NC(=O)[C@@H]2CCCN2C1=O` [compound 178] (H-DCLGFMRKCIPDNDKCCRPNLVCSRWHKWCKYVF-NH2; disulfide 2-17, 9-23, 16-30), the IC50 on hNav1.5 (Table 22, use, […]) came out at 5.84 µM; on hNav1.3 (Table 22, use, […]), 0.02 µM; at hNav1.7 (Table 22, use, […]) it was 0.03 µM.
